Assay results: paper PMC6920806, “Synthesis of β-D-galactopyranoside-Presenting Glycoclusters, Investigation of Their Interactions with Pseudomonas aeruginosa Lectin A (PA-IL) and Evaluation of Their Anti-Adhesion Potential” (Biomolecules, 2019)

Tested on: adhesion of P. aeruginosa (ST 1763) to epithelial bronchial cells (CuFi-1)
Experiment: Ex vivo bacterial adherence assay, combination with compound 14
Format: cell-based, Pseudomonas aeruginosa
Conditions: 2 mM of the compound with compound 14 (250 μM); relative to untreated control
Method: Epithelial CuFi-1 cells (an immortalized epithelial cell line derived from cystic fibrosis human lungs, ATCC, Kielpin, Poland) were labelled with PKH67 (Fluorescent Cell Linker Kit, Sigma-Aldrich, St. Louis, MO, USA), a green fluorescent membrane marker, as follows. An aliquot of cell suspension containing 7 × 10^6 cells was washed with PBS buffer and centrifuged (100× g for 5 min). The cell pellet was resuspended in 250 µL of Diluent C (Fluorescent Cell Linker Kit, Sigma-Aldrich, St. Louis, MO, USA). Immediately, an equal volume of 8 µM PKH67 in Diluent C (2 µL of PKH67 in 248 µL of Diluent C) was added to the cell suspension. […]
Epithelial cells CuFi-1 stained with PKH67 were seeded at 8.4 × 10^4 cells/well onto 96-well plates (CellBIND® 96-well Flat Clear Bottom Black Polystyrene Microplates, Corning Incorporated, Corning, NY, USA) and incubated for 42–45 h at 37 °C, 5% CO2 to form a confluent monolayer and regenerate. […] The fluorescence of adhered P. aeruginosa cells (Ex 522 nm, Em 569 nm for PKH26) on epithelial cells (Ex 470 nm, Em 505 for PKH67) was quantified using the spectrofluorometer Tecan Infinite M200 Pro (Tecan Group Ltd., Männedorf, Switzerland). Results were expressed as a relative fluorescence ratio of P. aeruginosa/CuFi-1. […]

Row | SMILES | P. aeruginosa adhesion, mixture with compound 14
1 | COC(=O)c1cc(OCc2cn(CCn3cc(CO[C@@H]4O[C@H](CO)[C@H](O)[C@H](O)[C@H]4O)nn3)nn2)c(OCc2cn(CCn3cc(CO[C@@H]4O[C@H](CO)[C@H](O)[C@H](O)[C@H]4O)nn3)nn2)c(OCc2cn(CCn3cc(CO[C@@H]4O[C@H](CO)[C@H](O)[C@H](O)[C@H]4O)nn3)nn2)c1 [Compound 10] | approximately 22%
2 | OC[C@H]1O[C@@H](OCc2cn(CCn3cc(COCC(COCc4cn(CCn5cc(CO[C@@H]6O[C@H](CO)[C@H](O)[C@H](O)[C@H]6O)nn5)nn4)(COCc4cn(CCn5cc(CO[C@@H]6O[C@H](CO)[C@H](O)[C@H](O)[C@H]6O)nn5)nn4)COCc4cn(CCn5cc(CO[C@@H]6O[C@H](CO)[C@H](O)[C@H](O)[C@H]6O)nn5)nn4)nn3)nn2)[C@H](O)[C@@H](O)[C@H]1O [Compound 13] | ~23%
